In patent publication US10435361B2, “Kinase inhibitors” (Topivert Pharma Limited, priority 2013, dated 2019):
Like-named read-outs stand apart in the source and are kept apart here.

How the values were obtained:
Type in all cases: cell-based
PBMCs [1] = experiment: LPS-induced TNFα/IL-8 release in PBMC cells; settings: Homo sapiens, assay (b), read-out: IC50 Values for Inhibition of Cytokine Release PBMCs IL-8
How it was run: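 Healthy-donor PBMCs isolated by density gradient were pretreated with compound for 2 h, then stimulated with 1 ng/mL LPS (E. coli 0111:B4) for 24 h at 37° C., 5% CO2. IL-8 and TNFα in supernatants measured by sandwich ELISA.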

PBMCs [2] = experiment: IL-2 and IFN gamma release in CD3/CD28 stimulated PBMC cells; settings: Homo sapiens, assay (c)
How it was run: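 Healthy-donor PBMCs, density-gradient isolated, stimulated on plates pre-coated with anti-CD3 (0.3 μg/mL) and anti-CD28 (3 μg/mL) antibodies, with compound, for 3 days under standard culture conditions. IC50 derived from the dose-response curve.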

PBMCs [3] = experiment: Cell mitosis assay in PBMCs; settings: Homo sapiens, PBMC, 5 μg/mL
How it was run: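 Human PBMCs from healthy donors, density-gradient isolated, stimulated with 2% PHA 48 h, then exposed 20 h to test compounds; demecolcine 0.1 μg/mL added 2 h before harvest. Fixed/permeabilised cells stained for phospho-histone H3 and propidium iodide; mitotic lymphocytes counted by flow cytometry.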

HT29 cells = experiment: IL-1β-induced IL-8 release in HT29 cells; settings: Homo sapiens, HT-29, assay (d), read-out: IC50 Values for Inhibition of Cytokine Release HT29 cells IL-8
Procedure: HT29 cells, a human colon adenocarcinoma cell line, are plated in a 96 well plate (24 hr) and pre-treated with compounds at the desired concentration for 2 hours before addition of 5 ng/mL of IL-1β (Abcam) for 24 hours. Supernatants are harvested for IL-8 quantification by Sandwich ELISA (Duo-set, R&D System). The IC50 is determined from the dose response curve.

d-U937 cells = experiment: LPS-induced TNFα/IL-8 release in d-U937 cells; settings: Homo sapiens, dU937, assay (aa)
Procedure: U937 cells, a human monocytic cell line, are differentiated to macrophage-type cells by incubation with phorbol myristate acetate (PMA; 100 ng/mL) for 48 to 72 hr. Cells are pre-incubated with final concentrations of test compound for 2 hr and are then stimulated with 0.1 μg/mL of LPS (from E. Coli: 0111:B4, Sigma) for 4 hr. The supernatant is collected for determination of TNFα and IL-8 concentrations by sandwich ELISA (Duo-set, R&D systems). […] The relative 50% effective concentration (REC50) is determined from the resultant concentration-response curve. The inhibition of IL-8 production is calculated at each concentration of test compound by comparison with vehicle control.

[4] = read-out: IC50 Values for Inhibition of Cytokine Release PBMCs IFNγ
[5] = read-out: IC50 Values for Inhibition of Cytokine Release PBMCs IL-2
[6] = method: relative to 10 μg/mL BIRB796 (REC50), read-out: IC50 Values for Inhibition of Cytokine Release dU937 cells TNFα
[7] = read-out: IC50 Values for Inhibition of Cytokine Release dU937 cells IL-8

IC50 (HT29 cells) | IC50 (d-U937 cells; [6]) | IC50 (d-U937 cells; [7]) | Compound | IC50 (PBMCs [1]) | IC50 (PBMCs [2]; [4]) | IC50 (PBMCs [2]; [5]) | inhibition at 5 µg/mL (PBMCs [3])
6.8 nM | 0.5 nM | 1.4 nM | COc1cc(Nc2nccc(Oc3ccc(NC(=O)Nc4cc(C(C)(C)C)cc(NS(C)(=O)=O)c4OC)c4ccccc34)n2)cc(S(=O)(=O)C2CC2)c1 [Example 5, N-(5-(tert-Butyl)-3-(3-(4-((2-((3-(cyclopropylsulfonyl)-5-methoxyphenyl)amino)pyrimidin-4-yl)oxy)naphthalen-1-yl)ureido)-2-methoxyphenyl)methanesulfonamide] | 2.4 nM | 10.3 nM | 151 nM | 44.9%
4.6 nM | 0.3 nM | 0.8 nM | COCCOCCOCCOc1cc(Nc2nccc(Oc3ccc(NC(=O)Nc4cc(C(C)(C)C)cc(NS(C)(=O)=O)c4OC)c(Cl)c3Cl)n2)cc(OC)c1 [Example 10, N-(5-(tert-Butyl)-3-(3-(2,3-dichloro-4-((2-((3-methoxy-5-(2-(2-(2-methoxyethoxy)ethoxy)-ethoxy)phenyl)amino)pyrimidin-4-yl)oxy)phenyl)ureido)-2-methoxyphenyl)-methanesulfonamide] | 2.3 nM | 4.4 nM | 9 nM | 70.2%
0.8 nM | – | – | COCCOCCOc1cc(Nc2nccc(Oc3ccc(NC(=O)Nc4cc(C(C)(C)C)cc(NS(C)(=O)=O)c4OC)c4ccccc34)n2)cc(OC)c1 [Example 36, N-(5-(tert-Butyl)-2-methoxy-3-(3-(4-((2-((3-methoxy-5-(2-(2-methoxyethoxy)ethoxy)-phenyl)amino)pyrimidin-4-yl)oxy)naphthalen-1-yl)ureido)phenyl)methanesulfonamide] | 1.8 nM | 5.7 nM | 65.3 nM | 45%
5.3 nM | – | – | C#Cc1cc(Nc2cc(Oc3ccc(NC(=O)Nc4cc(C(C)(C)C)cc(C(=O)NC)c4OC)c4ccccc34)ccn2)cc(C(=O)NCCN2CCOCC2)c1 [Example 39, 5-(tert-Butyl)-3-(3-(4-((2-((3-ethynyl-5-((2-morpholinoethyl)carbamoyl)phenyl)amino)-pyridin-4-yl)oxy)naphthalen-1-yl)ureido)-2-methoxy-N-methylbenzamide] | 2.5 nM | 9.6 nM | 132 nM | 34.7%
2.1 nM | – | – | COCCOCCOCCOCCOCCOCCOCCOc1cc(Nc2cc(Oc3ccc(NC(=O)Nc4cc(C(C)(C)C)cc(NS(C)(=O)=O)c4OC)c4ccccc34)ccn2)cc(OC)c1 [Example 45, N-(3-(3-(4-((2-((3-(2,5,8,11,14,17,20-Heptaoxadocosan-22-yloxy)-5-methoxyphenyl)-amino)pyridin-4-yl)oxy)naphthalen-1-yl)ureido)-5-(tert-butyl)-2-methoxyphenyl)methane-sulfonamide] | 1.4 nM | 7.8 nM | 182 nM | 45%
10.2 nM | – | – | C#Cc1cc(Nc2cc(Oc3ccc(NC(=O)Nc4cc(C(C)(C)C)cc(C(N)=O)c4OC)c4ccccc34)ccn2)cc(C(=O)NCCN2CCOCC2)c1 [Example 48, 3-((4-((4-(3-(5-(tert-Butyl)-3-carbamoyl-2-methoxyphenyl)ureido)naphthalen-1-yl)oxy)pyridin-2-yl)amino)-5-ethynyl-N-(2-morpholinoethyl)benzamide] | 3.4 nM | 17.2 nM | 144 nM | 44.2%
8.6 nM | – | – | C#Cc1cc(Nc2cc(Oc3ccc(NC(=O)Nc4cc(C(C)(C)C)cc(NS(C)(=O)=O)c4OC)c4ccccc34)ccn2)cc(C(=O)NCCN2CCOCC2)c1 [Example 49, 3-((4-((4-(3-(5-(tert-Butyl)-2-methoxy-3-(methylsulfonamido)phenyl)ureido)naphthalen-1-yl)oxy)pyridin-2-yl)amino)-5-ethynyl-N-(2-morpholinoethyl)benzamide] | 2.5 nM | 11 nM | 227 nM | 40.1%
1.7 nM | – | – | COCCOCCOCCOc1cc(Nc2nccc(Oc3ccc(NC(=O)Nc4cc(C(C)(C)C)cc(C(=O)NC5COC5)c4OC)c4ccccc34)n2)cc(OC)c1 [Example 51, 5-(tert-Butyl)-2-methoxy-3-(3-(4-((2-((3-methoxy-5-(2-(2-(2-methoxyethoxy)ethoxy)-ethoxy)phenyl)amino)pyrimidin-4-yl)oxy)naphthalen-1-yl)ureido)-N-(oxetan-3-yl)-benzamide] | 1.6 nM | 1.8 nM | 46.3 nM | 44.3%
17.3 nM | – | – | C#Cc1cc(Nc2cc(Oc3ccc(NC(=O)Nc4cc(C(C)(C)C)cc(NS(C)(=O)=O)c4OC)c4ccccc34)ccn2)cc(C(=O)NCCOCCOC)c1 [Example 52, 3-((4-((4-(3-(5-(tert-Butyl)-2-methoxy-3-(methylsulfonamido)phenyl)ureido)naphthalen-1-yl)oxy)pyridin-2-yl)amino)-5-ethynyl-N-(2-(2-methoxyethoxy)ethyl)benzamide] | 2.4 nM | 39 nM | 205 nM | 31%
6.4 nM | – | – | C#Cc1cc(Nc2cc(Oc3ccc(NC(=O)Nc4cc(C(C)(C)C)cc(C(N)=O)c4OC)c4ccccc34)ccn2)cc(C(=O)NCCOCCOCCOC)c1 [Example 53, 3-((4-((4-(3-(5-(tert-Butyl)-3-carbamoyl-2-methoxyphenyl)ureido)naphthalen-1-yl)oxy)pyridin-2-yl)amino)-5-ethynyl-N-(2-(2-(2-methoxyethoxy)ethoxy)ethyl)benzamide] | 1.6 nM | 14.9 nM | 181 nM | 30.3%
4.5 nM | – | – | COCCOCCOCCOc1cc(Nc2nccc(Oc3ccc(NC(=O)Nc4cc(C(C)(C)C)cc(S(N)(=O)=O)c4OC)c4ccccc34)n2)cc(OC)c1 [Example 55, 5-(tert-Butyl)-2-methoxy-3-(3-(4-((2-((3-methoxy-5-(2-(2-(2-methoxyethoxy)ethoxy)-ethoxy)phenyl)amino)pyrimidin-4-yl)oxy)naphthalen-1-yl)ureido)benzenesulfonamide] | 2.2 nM | 12 nM | 35.2 nM | 54.3%
8.6 nM | – | – | C#Cc1cc(Nc2nccc(Oc3ccc(NC(=O)Nc4cc(C(C)(C)C)cc(NS(C)(=O)=O)c4OC)c4ccccc34)n2)cc(C(=O)N[C@H](C)CN2CCOCC2)c1 [Example 56, (R)-3-((4-((4-(3-(5-(tert-Butyl)-2-methoxy-3-(methylsulfonamido)phenyl)ureido)-naphthalen-1-yl)oxy)pyrimidin-2-yl)amino)-5-ethynyl-N-(1-morpholinopropan-2-yl)-benzamide] | 1.8 nM | 12.2 nM | 35.2 nM | 46.4%
21.2 nM | – | – | C#Cc1cc(Nc2nccc(Oc3ccc(NC(=O)Nc4cc(C(C)(C)C)cc(NS(C)(=O)=O)c4OC)c4ccccc34)n2)cc(C(=O)N[C@@H](C)CN2CCOCC2)c1 [Example 57, (S)-3-((4-((4-(3-(5-(tert-butyl)-2-methoxy-3-(methylsulfonamido)phenyl)ureido)-naphthalen-1-yl)oxy)pyrimidin-2-yl)amino)-5-ethynyl-N-(1-morpholinopropan-2-yl)benzamide] | 3.6 nM | 74.5 nM | 140 nM | 42.1%
10.6 nM | – | – | COCCOCCOCCOc1cc(Nc2nccc(Oc3ccc(NC(=O)Nc4cc(C(C)(C)C)cc(NS(C)(=O)=O)c4OC)c4ccccc34)n2)cc(OC)c1Cl [Example 58, N-(5-(tert-Butyl)-3-(3-(4-((2-((4-chloro-3-methoxy-5-(2-(2-(2-methoxyethoxy)ethoxy)ethoxy)-phenyl)amino)pyrimidin-4-yl)oxy)naphthalen-1-yl)ureido)-2-methoxyphenyl)-methanesulfonamide] | 2.6 nM | 17.1 nM | 137 nM | 41.7%
145 nM | – | – | C#Cc1cc(Nc2cc(Oc3ccc(NC(=O)Nc4cc(NS(C)(=O)=O)cc(C(C)(C)C)c4)c4ccccc34)ccn2)cc(C(=O)NCCN2CCOCC2)c1 [Example 65, 3-((4-((4-(3-(3-(tert-Butyl)-5-(methylsulfonamido)phenyl)ureido)naphthalen-1-yl)oxy)-pyridin-2-yl)amino)-5-ethynyl-N-(2-morpholinoethyl)benzamide] | 4 nM | 34.4 nM | 131 nM | 51.1%
